For one data set, the system named is MCF-7 cell line. In words: Cytotoxic activity. The format is cell-based. The conditions noted are these: for CC50: Homo sapiens, MCF7, read-out: LC50, MCF-7 cell line; for SI (Selectivity index = LC50 value normal cell/LC50 value cancer cell): Vero / MCF-7.
The next data set has as its system normal Vero cell line. In words: Cytotoxic activity. The conditions noted are these: MTT, mean ± standard error of three experiments. The format is cell-based.

≈ marks a conversion by molar mass, not a printed value.

With `Cc1nn(-c2ccccc2)c2c1C(c1ccc(Cl)cc1)N(C(=O)c1ccncc1)N2` (stereo not drawn) [Compound 1b], in the data set on MCF-7 cell line, the CC50 was determined as 22.1 ± 0.04 µg/mL (≈ 53.1 µM) and the “SI (Selectivity index = LC50 value normal cell/LC50 value cancer cell)” value is recorded as 2.95.

For `Cc1nn(-c2ccccc2)c2c1C(c1ccc(O)cc1)N(C(=O)c1ccncc1)N2` (stereo not drawn) [Compound 1c], in the data set on MCF-7 cell line, the CC50 was 70.1 ± 0.05 µg/mL (≈ 176 µM) and the “SI (Selectivity index = LC50 value normal cell/LC50 value cancer cell)” value amounted to 1.05.

With `Cc1nn(-c2ccccc2)c2c1C(c1ccc([N+](=O)[O-])cc1)N(C(=O)c1ccncc1)N2` (stereo not drawn) [Compound 1d], in the data set with MCF-7 cell line, the CC50 came out at 91.1 ± 0.06 µg/mL (≈ 214 µM) and the “SI (Selectivity index = LC50 value normal cell/LC50 value cancer cell)” value was determined as 0.91.

As to `COc1ccc(C2c3c(C)nn(-c4ccccc4)c3NN2C(=O)c2ccncc2)cc1` (stereo not drawn) [Compound 1e], in the data set with MCF-7 cell line, the CC50 is 23.62 ± 0.02 µg/mL (≈ 57.4 µM) and the “SI (Selectivity index = LC50 value normal cell/LC50 value cancer cell)” value turned out to be 3.36.

Regarding `Cc1nn(-c2ccccc2)c2c1C(c1ccc(N(C)C)cc1)N(C(=O)c1ccncc1)N2` (stereo not drawn) [Compound 1f], in the data set with MCF-7 cell line, the CC50 worked out at 19.92 ± 0.01 µg/mL (≈ 46.9 µM) and the “SI (Selectivity index = LC50 value normal cell/LC50 value cancer cell)” value was found to be 4.12.

Turning to `CC(C)=CCCC(C)=CC1c2c(C)nn(-c3ccccc3)c2NN1C(=O)c1ccncc1` (stereo not drawn) [Compound 1g], in the data set on MCF-7 cell line, the CC50 was 30.82 ± 0.04 µg/mL (≈ 72.1 µM).

Regarding `Cc1nn(-c2ccccc2)c2c1C(c1c[nH]c3ccccc13)N(C(=O)c1ccncc1)N2` (stereo not drawn) [Compound 1h], in the data set with MCF-7 cell line, the CC50 turned out to be 21.43 ± 0.03 µg/mL (≈ 51 µM).

In the case of `Cc1nn(-c2ccccc2)c2c1C(c1ccco1)N(C(=O)c1ccncc1)N2` (stereo not drawn) [Compound 1i], the CC50 in the data set with MCF-7 cell line was 26.66 ± 0.05 µg/mL (≈ 71.8 µM).

As for `Cc1nn(-c2ccccc2)c2c1C(c1ccccn1)N(C(=O)c1ccncc1)N2` (stereo not drawn) [Compound 1j], in the data set with MCF-7 cell line, the CC50 turned out to be 57.34 ± 0.08 µg/mL (≈ 150 µM) and the “SI (Selectivity index = LC50 value normal cell/LC50 value cancer cell)” value is 1.45.

On to `Cc1nn(-c2ccccc2)c2c1C(c1cncs1)N(C(=O)c1ccncc1)N2` (stereo not drawn) [Compound 1k], for which, in the data set with MCF-7 cell line, the CC50 came to 62.34 ± 0.07 µg/mL (≈ 160 µM) and the “SI (Selectivity index = LC50 value normal cell/LC50 value cancer cell)” value is given as 1.25.

Take `COc1cccc2c1C(=O)c1c(O)c3c(c(O)c1C2=O)C[C@@](O)(C(=O)CO)C[C@@H]3O[C@H]1C[C@H](N)[C@H](O)[C@H](C)O1` [Doxorubicin, doxorubicin, reference compound]: in the data set with MCF-7 cell line, the CC50 turned out to be 0.65 ± 0.01 µg/mL (≈ 1.2 µM) and the “SI (Selectivity index = LC50 value normal cell/LC50 value cancer cell)” value is listed as 32.38.

“(3-(4-chlorophenyl)-4-methyl-6-phenyl pyrazolo[3,4-c]pyrazol-2(1H,3H,6H)-yl)(pyridin-4-yl)methanone [Compound 1a]”: the “LC50, Vero” value in the data set on normal Vero cell line was found to be 55.02 ± 0.11 µg/mL. The “LC50, MCF-7 cell line” value in the data set with MCF-7 cell line (MCF-7, MTT, mean ± standard error of three experiments) came to 78.10 ± 0.02 µg/mL.

Source of the values: publication PMC10758931 (RSC Advances, 2024).
